Results on 1 molecule are retold here after US11759496B2, “Compounds and pharmaceutical use thereof in the treatment of cancer” (priority 2016, dated 2023).

The structures appear in SMILES notation. Non-standard residues stand in square brackets, D forms with d. Residues, ends and D or L forms follow the SMILES beside them. NMeR = CN[C@@H](CCCNC(=N)N)C(=O)O; Nle = CCCC[C@H](N)C(=O)O

Experiment [1] deals with B CLL cells that have the C481S mutation BTK gene. Nature of the experiment: Sensitivity of ibrutinib-resistant B CLL cells to PKT16. It is filed as cell-based. Conditions: resistance to Ibrutinib.
A further experiment relates to MEC-1 cells. In words: MEC-1 cell death (PCD) after 2 h peptide treatment. It is filed as cell-based. The conditions noted are these: Table 4. The method, then:
Then the peptides structures were tested via NMR and X-ray. The peptides were also tested for their activity on MEC-1 and their KDs and Retention times on LCMS were determined.

In the next experiment the test system is CLL cells. Nature of the experiment: Cell death (Annexin-V and PI co-positivity) in CLL cells (FIG. 2). The format is cell-based. Conditions: 6 h. The method, then:
FIG. 2A: cell death, measured as Annexin-V and PI co-positivity, was assessed leukemic cells treated 6 h with different concentrations of PKT16 or PKHB1. The data in the plot are the mean±s.d. (n=5). FIG. 2B: cell death induced by PKT16 (100 μM, 6 h) was measured in B-cells from twenty healthy donors and forty CLL patients. The percentages refer to the mean of the Annexin-V/PI-positive staining

Experiment [2] has as its target T1, CD47 (membrane preparation from MEC-1 cells) (Homo sapiens, UniProt Q08722).
T1 construct: MEC-1 cell membrane preparation were biotinylated with the EZ-Link NHS-PEG4-Biotin kit; endogenous in cells; host or cells: MEC-1 cells (membrane preparation)
In words: Binding affinity by biolayer interferometry (Octet RED96) on biotinylated MEC-1 cell membrane preparation. Conditions: Table 5; apparent Kd; biolayer interferometry; read-out: Kd (BI). Here is the method:
The binding affinities of peptides for a membrane preparation from MEC-1 cells were measured by biolayer interferometry on an Octet RED96 System (Pall FortéBio Corp., Menlo Park, Calif.).
The binding affinities of peptides for a membrane preparation from MEC-1 cells were measured by biolayer interferometry on an Octet RED96 System (Pall FortéBio Corp., Menlo Park, Calif.). This system monitors interference of light reflected from two sources (an internal reflection surface and the liquid/solid interface of a fiber optic sensor) to measure the rate of binding of molecules to the biosensor surface.
MEC-1 cell membrane preparation were biotinylated with the EZ-Link NHS-PEG4-Biotin kit from Thermo-Scientific. Biotinylated membranes were then loaded onto SuperStreptavidin (SSA) biosensors (Pall FortéBio Corp.) at empirically determined concentrations.
In order to highlight the pharmacological properties of these peptides, a systematic SAR study by the development of a binding assay allowing to the assessment of the affinity of the 4N1K analogues to CD47 was initiated. […] An Ala-scan to identify the pharmacophores of 4N1K was implemented.
The binding affinities of peptides for a MEC-1 cells membrane preparation were measured by biolayer interferometry on an Octet RED96 System (Pall FortéBio Corp., Menlo Park, Calif.). This system monitors interference of light reflected from two sources (an internal reflection surface and the liquid/solid interface of a fiber optic sensor) to measure the rate of binding of molecules to the biosensor surface. MEC-1 cells membrane preparation is biotinylated with the EZ-Link NHS-PEG4-Biotin kit from Thermo-Scientific and excess biotin is removed using desalting column from Thermo-Scientific. Biotinylated membranes are then loaded onto SuperStreptavidin (SSA) biosensors (Pall FortéBio Corp.) at empirically determined concentrations. […] Typically, the biosensors were pre-equilibrated in PBS containing either biotinylated membranes or biocytine 100 μg/mL. Biosensors are then equilibrated in assay buffer for 10 min, brought to baseline in assay buffer for 60 sec. and transferred to wells containing peptide in dose-response (association for 120 sec. and dissociation for 300 sec.). The double reference with either membrane-loaded biosensors without any peptide dose-response or biocytine-loaded biosensors with each peptide dose-response were run in parallel for background signal double subtractions. Binding kinetics were calculated using the FortéBio Data Analysis v8.2 software.
Background: Biolayer interferometry detects binding as a change in optical thickness at a sensor tip.

For a further experiment, the system named is OSU cells. Nature of the experiment: Deaths on OSU cells treated with PKT16 or PKT16-FF (FIG. 4). The format is cell-based. The conditions noted are these: 6 hours, control 9.5%. Here is the method:
FIG. 4: compares deaths on OSU cells treated with PKT16 or PKT16-FF. For PKT16, it can be seen that the reported deaths are of 11.1, 17.9 and 52.7% for concentrations of 25 μM, 50 μM and 100 μM respectively. For PKT16-FF, it can be seen that the reported deaths are of 16.6, 38.3 and 82.4% for concentrations of 25 μM, 50 μM and 100 μM respectively. The control test provided 9.5% death of the cells.
It was synthesized using common solide phase peptide synthesis technics as mentioned above.

T1 sequence (Q08722 19-323): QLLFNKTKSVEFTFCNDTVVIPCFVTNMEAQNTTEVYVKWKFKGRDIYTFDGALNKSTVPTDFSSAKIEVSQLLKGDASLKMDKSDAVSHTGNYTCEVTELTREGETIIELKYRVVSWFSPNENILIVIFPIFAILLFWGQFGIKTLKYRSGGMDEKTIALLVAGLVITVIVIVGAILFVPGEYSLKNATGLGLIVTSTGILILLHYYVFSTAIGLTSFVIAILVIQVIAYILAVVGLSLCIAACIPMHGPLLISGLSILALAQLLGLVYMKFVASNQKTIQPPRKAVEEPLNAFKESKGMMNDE

For the molecule `CCCC[C@H](NC(=O)[C@@H](NC(=O)[C@@H](NC(=O)[C@H](Cc1ccc(O)cc1)NC(=O)[C@H](Cc1ccccc1)NC(=O)[C@H](CCCNC(=N)N)N(C)C(=O)[C@H](N)CCCCN)C(C)C)C(C)C)C(=O)N[C@@H](Cc1c[nH]c2ccccc12)C(=O)N[C@@H](CCCCN)C(=O)N[C@H](CCCCN)C(=O)O` [PKT16, H-(D)K ψ(CONMe)R F Y V V X W K (D)K-OH] (H-[dK][NMeR]FYVV[Nle]WK[dK]-OH), the “sensitivity to treatment with PKT16” value in experiment [1] is reported as “sensitive”. For the same molecule, the “Cell Death (MEC-1, 2 h)” value in the experiment on MEC-1 cells was 68%. In addition, in the experiment with CLL cells, the “PCD activity relative to PKHB1” value is “improved PCD activity”. Further, the Kd in experiment [2] was 74 µM. Besides, the results for the “deaths on OSU cells” value with OSU cells (25 μM), in the experiment with OSU cells (50 μM) and in the experiment with OSU cells (100 μM) were 11.1%, 17.9% and 52.7%, respectively.
